In patent publication US10221179B2, “Substituted pyrazoloquinazolinones and pyrroloquinazolinones as allosteric modulators of group II metabotropic glutamate receptors” (DOMAIN THERAPEUTICS, priority 2014, dated 2019) one finds IC50 and melting point data, which are given here for 24 molecules.

By IC50 is commonly meant the concentration that inhibits the measured activity by half. In general, melting point refers to the temperature of the solid-liquid transition.

One data set has as its target T1, human mGluR2 (hmGluR2) (Homo sapiens, UniProt Q14416).
T1 construct: expressed in transfected cells; host or cells: HEK-293 cells, transient co-transfection by electroporation
The data set can be described thus: Ca++ functional assay, human mGluR2 transiently over-expressed in HEK-293 cells (agonist and negative allosteric modulator modes). In kind it is cell-based. The settings on record: glutamate at EC80, intracellular calcium (Fluo4AM), read-out: hmGluR2 negative allosteric modulator activity IC50. Here is the method:
Example 127: Human mGluR2 and mGluR3 Evaluation Using Ca^++ Functional Assay
Examples of the present invention were tested successively for their agonist and negative allosteric modulator activities on human mGluR2 (hmGluR2) and mGluR3 (hmGluR3) transiently over-expressed in HEK-293 cells.
Cell Culture and Transfection
HEK-293 cells are maintained in Modified Eagle's Medium supplemented with 10% Foetal Calf Serum, 1% Penicillin/Streptomycin and 1% non-essential amino acids at 37° C./5% CO2.
Cells are co-transfected by electroporation with four DNA plasmids encoding hmGluR2 or hmGluR3, a chimeric G protein allowing redirection of the activation signal to intracellular calcium pathway (Brabet I et al., Neuropharmacology 37(8), 1043-51, 1998), and two glutamate transporters minimizing receptor desensitization by endogenous glutamate. After transfection, cells are cultured for 24 h at 37° C./5% CO2.
Calcium Assay IC50 Determination
Receptor activity is detected by changes in intracellular calcium measured using the fluorescent Ca^2+ sensitive dye, Fluo4AM (Molecular Probes).
On the day of the assay, culture medium is aspirated and replaced during 3 hours by medium without serum supplemented with 1% Glutamax, 1% Penicillin/Streptomycin and 1% non-essential amino acids. Then, cells are washed with freshly prepared buffer B (HBSS 1×(PAA), Hepes 20 mM, MgSO4-7H2O 1 mM, Na2CO3 3.3 mM, CaCl2-2H2O 1.3 mM, 0.1% BSA, Probenecid 2.5 mM) and loaded at 37° C. in 5% CO2 for 1.5 hours with buffer B containing 1 μM Fluo4AM, 0.1 mg/mL Pluronic Acid, 7 μg/mL Glutamate Pyruvate Transaminase and 2 mM sodium pyruvate. Afterwards cells are washed twice with buffer B. Then cells are detached using StemPro Accutase (Fischer Scientific), resuspended in buffer B and seeded in 384 well plate at a density of 30,000 cells per well. Addition of compounds and intracellular Ca^2+ measurements (excitation 485 nm, emission 525 nm) are performed by the fluorescence microplate reader FLIPRTetra (Molecular Devices).
Agonist and negative allosteric modulator activities of compounds are consecutively evaluated on the same cell plate. […] Then, cells are stimulated by an EC80 glutamate concentration and fluorescence is recorded for additional 3 minutes. EC80 glutamate concentration is the concentration giving 80% of the maximal glutamate response. Agonist or negative allosteric modulator activity(ies) are evaluated in comparison to basal signals evoked by buffer B or EC80 glutamate alone, respectively.
For IC50 determination, a dose-response test is performed using 20 concentrations (ranging over 6 logs) of each compound. Dose-response curves are fitted using the sigmoidal dose-response (variable slope) analysis in GraphPad Prism program (Graph Pad Inc) and IC50 of negative allosteric modulator activity is calculated. Dose-response experiments are performed in duplicate, two times independently.
For orientation: Calcium assays in cells follow changes in intracellular calcium, usually with a dye or a luminescent sensor.

A value given as a limit tells only on which side of the number the result lay.

T1 sequence (Q14416 19-872): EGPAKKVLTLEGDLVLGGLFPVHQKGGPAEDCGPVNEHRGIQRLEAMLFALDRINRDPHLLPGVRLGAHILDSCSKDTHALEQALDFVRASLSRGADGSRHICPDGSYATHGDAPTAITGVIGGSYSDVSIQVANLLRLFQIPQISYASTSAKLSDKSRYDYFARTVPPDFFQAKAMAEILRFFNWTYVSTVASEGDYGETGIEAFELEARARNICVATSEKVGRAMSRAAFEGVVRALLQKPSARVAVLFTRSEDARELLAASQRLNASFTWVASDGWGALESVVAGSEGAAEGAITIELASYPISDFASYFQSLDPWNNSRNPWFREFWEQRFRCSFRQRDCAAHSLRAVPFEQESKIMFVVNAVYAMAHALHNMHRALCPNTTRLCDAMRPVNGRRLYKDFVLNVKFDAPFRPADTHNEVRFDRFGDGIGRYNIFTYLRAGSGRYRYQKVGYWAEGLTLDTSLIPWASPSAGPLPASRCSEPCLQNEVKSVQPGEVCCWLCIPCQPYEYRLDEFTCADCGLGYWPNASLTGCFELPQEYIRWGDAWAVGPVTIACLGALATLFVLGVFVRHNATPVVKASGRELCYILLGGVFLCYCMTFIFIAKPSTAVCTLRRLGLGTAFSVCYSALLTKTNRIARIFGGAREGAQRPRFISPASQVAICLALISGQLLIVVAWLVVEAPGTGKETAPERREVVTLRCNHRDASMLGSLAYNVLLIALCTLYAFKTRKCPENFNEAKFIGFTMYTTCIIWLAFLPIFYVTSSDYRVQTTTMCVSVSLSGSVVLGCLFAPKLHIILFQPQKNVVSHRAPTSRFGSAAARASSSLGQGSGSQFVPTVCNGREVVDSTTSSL

In the case of `CNc1ccc2c(c1)c(=O)n(C)c1cc(-c3ccnc(C(F)(F)F)c3)nn21` [Example 40, 4-Methyl-7-methylamino-2-(2-trifluoromethyl-pyridin-4-yl)-4H-pyrazolo[1,5-a]quinazolin-5-one], the melting point was above 250 °C. The IC50 at human mGluR2 (hmGluR2) is below 1000 nM.

Turning to `[2H]C([2H])([2H])Nc1ccc2c(c1)c(=O)n(C)c1cc(-c3ccnc(C(F)(F)F)c3)nn21` [Example 41, 4-Methyl-7-methyl(D3)amino-2-(2-trifluoromethyl-pyridin-4-yl)-4H-pyrazolo[1,5-a]quinazolin-5-one], the melting point is above 250 °C. For the same molecule, on human mGluR2 (hmGluR2), the IC50 was below 1000 nM.

With `CN(C)c1ccc2c(c1)c(=O)n(C)c1cc(-c3ccnc(C(F)(F)F)c3)nn21` [Example 44, 7-Dimethylamino-4-methyl-2-(2-trifluoromethyl-pyridin-4-yl)-4H-pyrazolo[1,5-a]quinazolin-5-one], the melting point is above 250 °C. The 50% inhibitory concentration (IC50) on human mGluR2 (hmGluR2) was below 1000 nM.

In turn, `CCNc1ccc2c(c1)c(=O)n(C)c1cc(-c3ccnc(C(F)(F)F)c3)nn21` [Example 45, 7-Ethylamino-4-methyl-2-(2-trifluoromethyl-pyridin-4-yl)-4H-pyrazolo[1,5-a]quinazolin-5-one] gave a melting point of 239 to 242 °C. In addition, on human mGluR2 (hmGluR2), the IC50 is below 1000 nM.

`Cn1c(=O)c2cc(O)ccc2n2nc(-c3ccnc(C(F)(F)F)c3)cc12` [Example 48, 7-Hydroxy-4-methyl-2-(2-trifluoromethyl-pyridin-4-yl)-4H-pyrazolo[1,5-a]quinazolin-5-one] displayed a melting point above 250 °C. In addition, on human mGluR2 (hmGluR2), the IC50 was below 1000 nM.

`CCOc1ccc2c(c1)c(=O)n(C)c1cc(-c3ccnc(C(F)(F)F)c3)nn21` [Example 49, 7-Ethoxy-4-methyl-2-(2-trifluoromethyl-pyridin-4-yl)-4H-pyrazolo[1,5-a]quinazolin-5-one] had a melting point of 152 to 158 °C. Also, the IC50 at human mGluR2 (hmGluR2) is below 1000 nM.

`Cn1c(=O)c2ccc(F)cc2n2nc(-c3ccnc(C(F)(F)F)c3)cc12` [Example 55, 8-Fluoro-4-methyl-2-(2-trifluoromethyl-pyridin-4-yl)-4H-pyrazolo[1,5-a]quinazolin-5-one] yielded a melting point above 250 °C. The half-maximal inhibitory concentration (IC50) at human mGluR2 (hmGluR2) was below 1000 nM.

`CNc1ccc2c(=O)n(C)c3cc(-c4ccnc(C(F)(F)F)c4)nn3c2c1` [Example 61, 4-Methyl-8-methylamino-2-(2-trifluoromethyl-pyridin-4-yl)-4H-pyrazolo[1,5-a]quinazolin-5-one]: the melting point is above 250 °C. Also, the IC50 at human mGluR2 (hmGluR2) was below 1000 nM.

`Cn1c(=O)c2ccc(N3CCC(O)CC3)cc2n2nc(-c3ccnc(C(F)(F)F)c3)cc12` [Example 63, 8-(4-Hydroxy-piperidin-1-yl)-4-methyl-2-(2-trifluoromethyl-pyridin-4-yl)-4H-pyrazolo[1,5-a]quinazolin-5-one] showed a melting point of 112 to 117 °C. Also, the IC50 at human mGluR2 (hmGluR2) was below 1000 nM.

As for `CN(C)c1ccc2c(=O)n(C)c3cc(-c4ccnc(C(F)(F)F)c4)nn3c2c1` [Example 64, 8-Dimethylamino-4-methyl-2-(2-trifluoromethyl-pyridin-4-yl)-4H-pyrazolo[1,5-a]quinazolin-5-one], the melting point was above 250 °C. Moreover, the IC50 on human mGluR2 (hmGluR2) is below 1000 nM.

`Cn1c(=O)c2ccc(N3CC(O)C3)cc2n2nc(-c3ccnc(C(F)(F)F)c3)cc12` [Example 68, 8-(3-Hydroxy-azetidin-1-yl)-4-methyl-2-(2-trifluoromethyl-pyridin-4-yl)-4H-pyrazolo[1,5-a]quinazolin-5-one]: the melting point was above 250 °C. For the same molecule, the IC50 at human mGluR2 (hmGluR2) is below 1000 nM.

For `Cn1c(=O)c2ccc(N3CCC(O)C3)cc2n2nc(-c3ccnc(C(F)(F)F)c3)cc12` (stereo not drawn) [Example 70, 8-(3-Hydroxy-pyrrolidin-1-yl)-4-methyl-2-(2-trifluoromethyl-pyridin-4-yl)-4H-pyrazolo[1,5-a]quinazolin-5-one], the melting point was above 250 °C. The IC50 on human mGluR2 (hmGluR2) was below 1000 nM.

`Cn1c(=O)c2ccc(C(N)=O)cc2n2nc(-c3ccnc(C(F)(F)F)c3)cc12` [Example 77, 4-Methyl-5-oxo-2-(2-trifluoromethyl-pyridin-4-yl)-4,5-dihydro-pyrazolo[1,5-a]quinazoline-8-carboxylic Acid Amide] displayed a melting point above 250 °C. On human mGluR2 (hmGluR2), the concentration for half-maximal inhibition (IC50) was below 1000 nM.

As for `CNC(=O)c1ccc2c(=O)n(C)c3cc(-c4ccnc(C(F)(F)F)c4)nn3c2c1` [Example 78, 4-Methyl-5-oxo-2-(2-trifluoromethyl-pyridin-4-yl)-4,5-dihydro-pyrazolo[1,5-a]quinazoline-8-carboxylic Acid Methylamide], the melting point is above 250 °C. The IC50 on human mGluR2 (hmGluR2) is below 1000 nM.

On to `CCN(CC)C(=O)c1ccc2c(=O)n(C)c3cc(-c4ccnc(C(F)(F)F)c4)nn3c2c1` [Example 80, 4-Methyl-5-oxo-2-(2-trifluoromethyl-pyridin-4-yl)-4,5-dihydro-pyrazolo[1,5-a]quinazoline-8-carboxylic Acid Diethylamide], for which the melting point was in the range of 240 to 245 °C. Further, the IC50 at human mGluR2 (hmGluR2) is below 1000 nM.

With `Cn1c(=O)c2ccc(C(=O)N3CCOCC3)cc2n2nc(-c3ccnc(C(F)(F)F)c3)cc12` [Example 81, 4-Methyl-8-(morpholine-4-carbonyl)-2-(2-trifluoromethyl-pyridin-4-yl)-4H-pyrazolo[1,5-a]quinazolin-5-one], the melting point was above 250 °C. For the same molecule, the IC50 at human mGluR2 (hmGluR2) is below 1000 nM.

On to `Cn1c(=O)c2ccc(C(=O)N3CCCC3)cc2n2nc(-c3ccnc(C(F)(F)F)c3)cc12` [Example 82, 4-Methyl-8-(pyrrolidine-1-carbonyl)-2-(2-trifluoromethyl-pyridin-4-yl)-4H-pyrazolo[1,5-a]quinazolin-5-one], for which the melting point is above 250 °C. Besides, the IC50 on human mGluR2 (hmGluR2) is below 1000 nM.

The molecule `Cn1c(=O)c2c(F)cccc2n2nc(-c3ccnc(C(F)(F)F)c3)cc12` [Example 85, 6-Fluoro-4-methyl-2-(2-trifluoromethyl-pyridin-4-yl)-4H-pyrazolo[1,5-a]quinazolin-5-one] returned a melting point above 250 °C. The IC50 on human mGluR2 (hmGluR2) is below 1000 nM.

Take `COc1cc2c(=O)n(C)c3cc(-c4ccnc(C(F)(F)F)c4)nn3c2cc1OC` [Example 87, 7,8-Dimethoxy-4-methyl-2-(2-trifluoromethyl-pyridin-4-yl)-4H-pyrazolo[1,5-a]quinazolin-5-one]: the melting point is above 250 °C. Moreover, the concentration for half-maximal inhibition (IC50) on human mGluR2 (hmGluR2) is below 1000 nM.

For `Cn1c(=O)c2cc(F)c(F)cc2n2nc(-c3ccnc(C(F)(F)F)c3)cc12` [Example 88, 7,8-Difluoro-4-methyl-2-(2-trifluoromethyl-pyridin-4-yl)-4H-pyrazolo[1,5-a]quinazolin-5-one], the melting point is above 206 °C. In addition, at human mGluR2 (hmGluR2), the IC50 is below 1000 nM.

As for `COc1cc2c(=O)n(C)c3cc(-c4ccnc(C(F)(F)F)c4)nn3c2cc1F` [Example 89, 8-Fluoro-7-methoxy-4-methyl-2-(2-trifluoromethyl-pyridin-4-yl)-4H-pyrazolo[1,5-a]quinazolin-5-one], the melting point is 220 to 230 °C. In addition, on human mGluR2 (hmGluR2), the IC50 is below 1000 nM.

In the case of `COc1cc2c(=O)n(C)c3cc(-c4ccnc(C(F)(F)F)c4)nn3c2cc1N1CCC(O)CC1` [Example 90, 8-(4-Hydroxy-piperidin-1-yl)-7-methoxy-4-methyl-2-(2-trifluoromethyl-pyridin-4-yl)-4H-pyrazolo[1,5-a]quinazolin-5-one], the melting point is above 250 °C. Moreover, on human mGluR2 (hmGluR2), the 50% inhibitory concentration (IC50) was below 1000 nM.

For the molecule `CN(C)c1cc2c(cc1F)c(=O)n(C)c1cc(-c3ccnc(C(F)(F)F)c3)nn21` [Example 91, 8-Dimethylamino-7-fluoro-4-methyl-2-(2-trifluoromethyl-pyridin-4-yl)-4H-pyrazolo[1,5-a]quinazolin-5-one], the melting point was above 250 °C. For the same molecule, the IC50 on human mGluR2 (hmGluR2) is below 1000 nM.

`COc1ccc2c(c1)c(=O)n(C)c1cc(-c3ccnc(OCC(F)(F)F)c3)nn21` [Example 102, 7-Methoxy-4-methyl-2-[2-(2,2,2-trifluoro-ethoxy)-pyridin-4-yl]-4H-pyrazolo[1,5-a]quinazolin-5-one] returned a melting point of 172 to 180 °C. Moreover, at human mGluR2 (hmGluR2), the IC50 was below 1000 nM.
